The record followed here is patent US10821115B2, “Compounds that inhibit Mcl-1 protein” (priority 2017, dated 2020).

What is called IC50 is the concentration at which inhibition is half-maximal.

SMILES strings stand for the structures. Like-named read-outs stand apart in the source and are kept apart here.

The test system of assay [1] is human multiple myeloma cell line, OPM-2. The assay can be described thus: Cell viability assay (OPM-2 10 FBS), CellTiter-Glo. The format is cell-based. In a few lines: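 Serially diluted test compounds are incubated 16 h with cells (3000/well) in RPMI 1640 supplemented with 10% FBS. Viability is then measured by luminescence and IC50 calculated by 4-parameter logistic fit.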
For orientation: In ATP-based viability assays light output follows the ATP content of the culture.

Assay [2] deals with recombinant human Mcl-1 (residues 171-327) / Bim interaction (Homo sapiens (Human), UniProt Q07820). The assay can be described thus: biochemical. The class given is binding. The note with it: read-out: Mcl-1 HTRF IC50.
[3] abbreviates: read-out: OPM-2 10% FBS IC50 IP, OPM-2 cells, 10% FBS, 16 h, CellTiter-Glo.
Setting [4] is: TR-FRET, Mcl-1(171-327) / biotin-Bim (51-76).
[5] abbreviates: Homo sapiens, OPM-2, 16 h, read-out: OPM-2 10% FBS IC50 IP, OPM-2 cells, 10% FBS, 16 h incubation.
Where [6] appears, read: 0.1 nM Mcl-1(171-327), 0.05 nM biotin-Bim (51-76).
Setting [7] is: Homo sapiens, OPM-2, 16 h, read-out: OPM-2 10% FBS IC50 IP, OPM-2 cells, 10% FBS, 16 h, CellTiter-Glo.

Chain of recombinant human Mcl-1 (residues 171-327) / Bim interaction (Q07820 171-327): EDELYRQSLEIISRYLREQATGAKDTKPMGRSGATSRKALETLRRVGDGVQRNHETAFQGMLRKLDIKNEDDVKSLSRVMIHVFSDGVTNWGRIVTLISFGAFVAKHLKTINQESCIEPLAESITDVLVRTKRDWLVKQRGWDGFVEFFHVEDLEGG

With `CO[C@@]1(C2SCCCS2)CCC[C@H](C)[C@@H](C)S(=O)(=O)NC(=O)c2ccc3c(c2)N(C[C@@H]2CC[C@H]21)C[C@@]1(CCCc2cc(Cl)ccc21)CO3` [Example 100254, (1S,3′R,6′R,7′S,11′S,12′R)-6-chloro-7′-(1,3-dithian-2-yl)-7′-methoxy-11′,12′-dimethyl-3,4-dihydro-2H,15′H-spiro[naphthalene-1,22′-[20]oxa[13]thia[1,14]diazatetracyclo [14.7.2.0~3,6~.0~19,24~]pentacosa[16,18,24]trien]-15′-one 13′,13′-dioxide], the IC50 in assay [1] (setting [3]) is 2150 nM; in assay [2] (setting [4]), 4.07 nM.
In the case of `CO[C@]1(CN2CCC2)/C=C/C[C@H](C)[C@@H](C)S(=O)(=O)NC(=O)c2ccc3c(c2)N(C[C@@H]2CC[C@H]21)C[C@@]1(CCCc2cc(Cl)ccc21)CO3` [Example 76, (1S,3′R,6′R,7′R,8′E,11′S,12′R)-7′-(1-azetidinylmethyl)-6-chloro-7′-methoxy-11′,12′-dimethyl-3,4-dihydro-2H,15′H-spiro[naphthalene-1,22′-[20]oxa[13]thia[1,14]diazatetracyclo [14.7.2.0~3,6~.0~19,24~]pentacosa[8,16,18,24]tetraen]-15′-one 13′,13′-dioxide], the IC50 came to 670 nM in assay [1] (setting [5]) and 3.81 nM in assay [2] (setting [6]).
`CO[C@@]1(C[C@@H](O)C(C)C)/C=C/C[C@H](C)[C@@H](C)S(=O)(=O)NC(=O)c2ccc3c(c2)N(C[C@@H]2CC[C@H]21)C[C@@]1(CCCc2cc(Cl)ccc21)CO3` (single isomer, unassigned) [Example 100366]: the IC50 in assay [1] (setting [3]) was 168 nM; in assay [2] (setting [4]) it was 0.198 nM.
Turning to `CCO[C@@]1(CN2CCN3CCOC[C@@H]3C2)/C=C/C[C@H](C)[C@@H](CC2CCC2)S(=O)(=O)NC(=O)c2ccc3c(c2)N(C[C@@H]2CC[C@H]21)C[C@@]1(CCCc2cc(Cl)ccc21)CO3` [Example 44, (1S,3′R,6′R,7′S,8′E,11′S,12′R)-6-chloro-12′-(cyclobutylmethyl)-7′-ethoxy-7′-((9aS)-hexahydropyrazino[2,1-c][1,4]oxazin-8(1H)-ylmethyl)-11′-methyl-3,4-dihydro-2H,15′H-spiro[naphthalene-1,22′-[20]oxa[13]thia[1,14]diazatetracyclo [14.7.2.0~3,6~.0~19,24~]pentacosa[8,16,18,24]tetraen]-15′-one 13′,13′-dioxide], the IC50 in assay [1] (setting [5]) amounted to 1360 nM; in assay [2] (setting [6]), 0.288 nM.
Take `CO[C@@]1(c2nccs2)/C=C/C[C@H](C)[C@@H](C)S(=O)(=O)NC(=O)c2ccc3c(c2)N(C[C@@H]2CC[C@H]21)C[C@@]1(CCCc2cc(Cl)ccc21)CO3` (single isomer, unassigned) [Example 100497]: the IC50 in assay [1] (setting [7]) was 106 nM; in assay [2] (setting [4]), 0.064 nM.
For `COCCN1[C@H](C)CN(C[C@]2(OC)/C=C/C[C@H](C)[C@@H](C)S(=O)(=O)NC(=O)c3ccc4c(c3)N(C[C@@H]3CC[C@H]32)C[C@@]2(CCCc3cc(Cl)ccc32)CO4)C[C@@H]1C` [Example 324, (1S,3′R,6′R,7′S,8′E,11′S,12′R)-6-chloro-7′-methoxy-7′-(((3R,5S)-4-(2-methoxyethyl)-3,5-dimethyl-1-piperazinyl)methyl)-11′,12′-dimethyl-3,4-dihydro-2H,15′H-spiro[naphthalene-1,22′-[20]oxa[13]thia[1,14]diazatetracyclo [14.7.2.0~3,6~.0~19,24~]pentacosa[8,16,18,24]tetraen]-15′-one 13′,13′-dioxide], the IC50 came out at 57 nM in assay [1] (setting [5]) and 0.136 nM in assay [2] (setting [6]).
Regarding `C[C@@H]1[C@@H](C)C/C=C/[C@@](CN2CCN3CCOC[C@@H]3C2)(OCC(F)(F)F)[C@@H]2CC[C@H]2CN2C[C@@]3(CCCc4cc(Cl)ccc43)COc3ccc(cc32)C(=O)NS1(=O)=O` [Example 50, (1S,3′R,6′R,7′R,8′E,11′S,12′R)-6-chloro-7′-((9aS)-hexahydropyrazino[2,1-c][1,4]oxazin-8(1H)-ylmethyl)-11′,12′-dimethyl-7′-(2,2,2-trifluoroethoxy)-3,4-dihydro-2H,15′H-spiro[naphthalene-1,22′-[20]oxa[13]thia[1,14]diazatetracyclo [14.7.2.0~3,6~.0~19,24~]pentacosa[8,16,18,24]tetraen]-15′-one 13′,13′-dioxide], the results for the IC50 in assay [1] (setting [5]) and in assay [2] (setting [6]) were 1530 nM and 0.736 nM, respectively.
Regarding `C[C@@H]1[C@@H](C)C/C=C/[C@@](O)(CCCO)[C@@H]2CC[C@H]2CN2C[C@@]3(CCCc4cc(Cl)ccc43)COc3ccc(cc32)C(=O)NS1(=O)=O` (stereo in doubt) [Example 100128], the IC50 in assay [1] (setting [7]) is 217 nM; in assay [2] (setting [4]) it was 0.089 nM.
Regarding `CO[C@@]1(C#CCCN2CCOC[C@@H]2C)/C=C/C[C@H](C)[C@@H](C)S(=O)(=O)NC(=O)c2ccc3c(c2)N(C[C@@H]2CC[C@H]21)C[C@@]1(CCCc2cc(Cl)ccc21)CO3` [Example 100506, (1S,3′R,6′R,7′S,8′E,11′S,12′R)-6-chloro-7′-methoxy-11′,12′-dimethyl-7′-(4-((3S)-3-methyl-4-morpholinyl)-1-butyn-1-yl)-3,4-dihydro-2H,15′H-spiro[naphthalene-1,22′-[20]oxa[13]thia[1,14]diazatetracyclo [14.7.2.0~3,6~.0~19,24~]pentacosa[8,16,18,24]tetraen]-15′-one 13′,13′-dioxide], the IC50 stood at 1270 nM in assay [1] (setting [7]) and 0.497 nM in assay [2] (setting [4]).
Take `CN[C@@H]1C[C@H](C)[C@@H](C)S(=O)(=O)NC(=O)c2ccc3c(c2)N(C[C@@H]2CC[C@H]2[C@@](C)(O)C1)C[C@@]1(CCCc2cc(Cl)ccc21)CO3` [Example 100066, (1S,3′R,6′R,7′S,9′R,11′S,12′R)-6-chloro-7′-hydroxy-7′,11′,12′-trimethyl-9′-(methylamino)-3,4-dihydro-2H,15′H-spiro[naphthalene-1,22′-[20]oxa[13]thia[1,14]diazatetracyclo [14.7.2.0~3,6~.0~19,24~]pentacosa[16,18,24]trien]-15′-one 13′,13′-dioxide]: the values for the IC50 in assay [1] (setting [3]) and in assay [2] (setting [4]) were 3820 nM and 1.43 nM, respectively.
On to `C[C@@H]1[C@@H](C)C/C=C/[C@@](O)(CC2=NC(C)(C)CO2)[C@@H]2CC[C@H]2CN2C[C@@]3(CCCc4cc(Cl)ccc43)COc3ccc(cc32)C(=O)NS1(=O)=O` [Example 100346, (1S,3′R,6′R,7′S,8′E,11′S,12′R)-6-chloro-7′-((4,4-dimethyl-4,5-dihydro-1,3-oxazol-2-yl)methyl)-7′-hydroxy-11′,12′-dimethyl-3,4-dihydro-2H,15′H-spiro[naphthalene-1,22′-[20]oxa[13]thia[1,14]diazatetracyclo [14.7.2.0~3,6~.0~19,24~]pentacosa[8,16,18,24]tetraen]-15′-one 13′,13′-dioxide], for which the IC50 in assay [1] (setting [7]) stood at 248 nM; in assay [2] (setting [4]), 0.735 nM.
Turning to `CO[C@@]1(C#CCO)/C=C/C[C@H](C)[C@@H](C)S(=O)(=O)NC(=O)c2ccc3c(c2)N(C[C@@H]2CC[C@H]21)C[C@@]1(CCCc2cc(Cl)ccc21)CO3` [Example 100344, (1S,3′R,6′R,7′S,8′E,11′S,12′R)-6-chloro-7′-(3-hydroxy-1-propyn-1-yl)-7′-methoxy-11′,12′-dimethyl-3,4-dihydro-2H,15′H-spiro[naphthalene-1,22′-[20]oxa[13]thia[1,14]diazatetracyclo [14.7.2.0~3,6~.0~19,24~]pentacosa[8,16,18,24]tetraen]-15′-one 13′,13′-dioxide], the IC50 in assay [1] (setting [7]) came to 290 nM; in assay [2] (setting [4]), 0.309 nM.
Take `C[C@@H]1[C@@H](C)C/C=C/[C@](O)(Cc2nccs2)[C@@H]2CC[C@H]2CN2C[C@@]3(CCCc4cc(Cl)ccc43)COc3ccc(cc32)C(=O)NS1(=O)=O` [Example 100245, (1S,3′R,6′R,7′R,8′E,11′S,12′R)-6-chloro-7′-hydroxy-11′,12′-dimethyl-7′-(1,3-thiazol-2-ylmethyl)-3,4-dihydro-2H,15′H-spiro[naphthalene-1,22′-[20]oxa[13]thia[1,14]diazatetracyclo [14.7.2.0~3,6~.0~19,24~]pentacosa[8,16,18,24]tetraen]-15′-one 13′,13′-dioxide]: the half-maximal inhibitory concentration (IC50) stood at 1980 nM in assay [1] (setting [3]) and 1.71 nM in assay [2].
`CO[C@@]1(CSC(C)C)/C=C/C[C@H](C)[C@@H](C)S(=O)(=O)NC(=O)c2ccc3c(c2)N(C[C@@H]2CC[C@H]21)C[C@@]1(CCCc2cc(Cl)ccc21)CO3` [Example 100441, (1S,3′R,6′R,7′S,8′E,11′S,12′R)-6-chloro-7′-methoxy-11′,12′-dimethyl-7′-((2-propanylsulfanyl)methyl)-3,4-dihydro-2H,15′H-spiro[naphthalene-1,22′-[20]oxa[13]thia[1,14]diazatetracyclo [14.7.2.0~3,6~.0~19,24~]pentacosa[8,16,18,24]tetraen]-15′-one 13′,13′-dioxide]: the IC50 in assay [1] (setting [7]) came to 154 nM; in assay [2] (setting [4]), 0.133 nM.
Take `CO[C@@]1(CN2CCN3CCN(C)C[C@@H]3C2)/C=C/C[C@H](C)[C@@H](C)S(=O)(=O)NC(=O)c2ccc3c(c2)N(C[C@@H]2CC[C@H]21)C[C@@]1(CCCc2cc(Cl)ccc21)CO3` [Example 210]: the IC50 in assay [1] (read-out: OPM-2 10% FBS IC50 IP, OPM-2 cells, 10% FBS, 16 h incubation) amounted to 185 nM; in assay [2] (setting [6]) it was 0.138 nM.
As to `C[C@@H]1[C@@H](C)C/C=C/[C@](O)(c2nccn2C)[C@@H]2CC[C@H]2CN2C[C@@]3(CCCc4cc(Cl)ccc43)COc3ccc(cc32)C(=O)NS1(=O)=O` [Example 100198, (1S,3′R,6′R,7′R,8′E,11′S,12′R)-6-chloro-7′-hydroxy-11′,12′-dimethyl-7′-(1-methyl-1H-imidazol-2-yl)-3,4-dihydro-2H,15′H-spiro[naphthalene-1,22′-[20]oxa[13]thia[1,14]diazatetracyclo [14.7.2.0~3,6~.0~19,24~]pentacosa[8,16,18,24]tetraen]-15′-one 13′,13′-dioxide], the IC50 in assay [1] (setting [3]) was 399 nM; in assay [2] (setting [4]) it was 0.307 nM.
